From US12459951B2, “Compounds that interact with RAS superfamily proteins for treatment of cancers, inflammatory diseases, rasopathies, and fibrotic disease” (SHY Therapeutics, LLC, priority 2022, dated 2025)

Experiments:
Experiment in all cases: Proliferation Assay (Cell Viability Assay)
Format in all cases: cell-based
[1] = tested on: BT-20 (expressing wild type KRas); conditions: Homo sapiens; BT-20, Breast (TNBC), KRas WT
Experimental: (§1) Cell lines: these Human tumor-derived cell lines were purchased from American Type Culture Collection. Human tumor-derived pancreatic cancer cell line MiaPaca-2 (expressing KRAS G12C mutant) and Panc-1 (expressing KRas G12D mutant), and Human non-small cell lung cancer (NSCLC) cell line A549 (expressing KRas G12S mutant), and Human melanoma cell line A375 (wild type Kras) were grown in complete DMEM-High Glucose medium. Human tumor-derived pancreatic cancer cell lines SU86.86 (expressing KRas G12D mutant), BxPC3 (expressing wild type K-Ras), and Human non-small cell lung cancer (NSCLC) cell lines NCI-H441 (expressing KRas G12S mutant), NCI-H1975 (expressing wild type KRas), NCI-H358 (expressing KRas G12C mutant), NCI-H1299 (expressing NRas Q61H mutant), and Human colon cancer cell line SW-620 (expressing KRas G12V mutant), Human triple negative breast cancer cell line HCC-1806 (expressing wild type KRas), and Human tumor-derived multiple myeloma cell line MM.1R (expressing wild type KRAS), were grown in RPMI 1640 medium. Human tumor-derived breast cancer cell line BT-549 (expressing wild type KRAS) was grown in RPMI 1640 medium in the presence of 11.8U insulin. Human tumor-derived pancreatic cancer cell line HPAF-II (expressing KRas G12D mutant), Human triple negative breast cancer cell line BT-20 (expressing wild type KRas), and Human colon cancer cell line LS123 (expressing KRas G12S mutant), were grown in EMEM medium. Human tumor-derived pancreatic cancer cell line CF-PAC1 (expressing KRas G12V mutant) was frown in IMDM medium, and Human colon cancer cell line HT29 (expressing wild type KRas) was grown in McCoy's 5A medium. The colon cancer cell line GP2d (expressing KRas G12D mutant) was purchased from MilliporeSigma and grown in DMEM-High Glucose medium. All cell lines were supplemented with penicillin (100 U/mL), streptomycin (100 μg/mL), and 10% heat-inactivated FBS at 37° C. in a humidified incubator with 5% CO2.
(§2) Method: Cells were plated at 2000 to 5000 cells/well density in 96-wells plate and cultured overnight. Small molecules that were tested were added to the cells in the final concentration of 10 μM in the presence of 0.3% DMSO and 10% FBS, and incubated for 2-4 days at 37° C. in a humidified incubator with 5% CO2. For IC50 value determination, serial dilutions of compounds were added to cells under the same conditions.
(§3) Assay: At the end of the incubation period, cell viability was determined using the CellTiter 96® Aqueous One Solution Cell Proliferation Assay according to manufacturer specifications (Promega, Madison, WI). The percentage of small molecules inhibition of cellular proliferation was calculated from raw data.

[2] = tested on: BxPC3 (expressing wild type K-Ras); conditions: Homo sapiens, BXPC-3; BxPC3, pancreatic, KRas WT
Experimental: as §1, §2, §3

[3] = tested on: CF-PAC1 (expressing KRas G12V mutant); conditions: Homo sapiens, CFPAC-1, CF-PAC1, pancreatic
Experimental: as §1, §2, §3

[4] = tested on: HCC-1806 (expressing wild type KRas); conditions: Homo sapiens, HCC1806; HCC-1806, Breast (TNBC), KRas WT
Experimental: as §1, §2, §3

[5] = tested on: HPAF-II (expressing KRas G12D mutant); conditions: Homo sapiens, pancreatic
Experimental: as §1, §2, §3

[6] = tested on: HT29 (expressing wild type KRas); conditions: Homo sapiens, HT-29; HT29, colon, KRas WT
Experimental: as §1, §2, §3

[7] = tested on: LS123 (expressing KRas G12S mutant); conditions: Homo sapiens, LS-123, colon
Experimental: as §1, §2, §3

[8] = tested on: NCI-H1299 (expressing NRas Q61H mutant); conditions: Homo sapiens; NCI-H1299, NSCLC, Q61H (N-Ras)
Experimental: as §1, §2, §3

[9] = tested on: NCI-H1975 (expressing wild type KRas); conditions: Homo sapiens; NCI-H1975, NSCLC, KRas WT
Experimental: as §1, §2, §3

[10] = tested on: NCI-H441 (expressing KRas G12S mutant); conditions: Homo sapiens, NCI-H441, NSCLC
Experimental: as §1, §2, §3

[11] = tested on: SU86.86 (expressing KRas G12D mutant); conditions: Homo sapiens, SU.86.86, SU86.86, pancreatic
Experimental: as §1, §2, §3

[12] = tested on: A549 (expressing KRas G12S mutant); conditions: Homo sapiens, A549, NSCLC
Experimental: (§4) Cell lines: Human tumor-derived cell lines were purchased from American Type Culture Collection. Human tumor-derived pancreatic cancer cell line MiaPaca-2 (expressing KRAS G12C mutant) and Panc-1 (expressing KRas G12D mutant), and Human non-small cell lung cancer (NSCLC) cell line A549 (expressing KRas G12S mutant) were grown in complete DMEM-High Glucose medium. Human colon cancer cell line SW-620 (expressing KRas G12V mutant) was grown in RPMI 1640 medium. All cell lines were supplemented with penicillin (100 U/mL), streptomycin (100 μg/mL), and 10% heat-inactivated FBS at 37° C. in a humidified incubator with 5% CO2.
as §2, with “to be” for “that were”, “FBS” for “FBS,”
as §3, §1, §2

[13] = tested on: Panc-1 (expressing KRas G12D mutant); conditions: Homo sapiens, Panc1, pancreatic
Experimental: as §4
as §2, with “to be” for “that were”, “FBS” for “FBS,”
as §3, §1, §2

[14] = tested on: SW-620 (expressing KRas G12V mutant); conditions: Homo sapiens, SW-620, colon
Experimental: as §4
as §2, with “to be” for “that were”, “FBS” for “FBS,”
as §3, §1, §2

COc1cc(Nc2nc(-c3nccn3C)nn3cc(-c4ccn(C(C)C)n4)c(C)c23)ncn1 [Compound 6, 6-(1-Isopropyl-1H-pyrazol-3-yl)-N-(6-methoxypyrimidin-4-yl)-5-methyl-2-(1-methyl-1H-imidazol-2-yl)pyrrolo[2,1-f][1,2,4]triazin-4-amine]
IC50 [1]: < 150 nM
IC50 [2]: < 150 nM
IC50 [3]: < 150 nM
IC50 [4]: 510 to 1000 nM
IC50 [5]: < 150 nM
IC50 [6]: < 150 nM
IC50 [7]: < 150 nM
IC50 [8]: < 150 nM
IC50 [9]: 510 to 1000 nM
IC50 [10]: 510 to 1000 nM
IC50 [11]: 150 to 500 nM
IC50 [12]: 510 to 1000 nM
IC50 [13]: < 150 nM
IC50 [14]: 150 to 500 nM
